Converted amounts (≈) assume the structure as drawn. The source made the active and inactive calls. The rule behind the calls is not given here.
Experiments:
HepG2 [1] = assay: Upregulation of ApoA1 in human HepG2 cells at 1.25 uM after 16 hrs by luciferase reporter assay relative to control; format: functional
[2] = target: Bromodomain-containing protein 2 (Homo sapiens, UniProt P25440); assay: Displacement of biotinylated tetra-acetylated histone H4 from His6-tagged BRD2 (1 to 473 aa) (unknown origin) after 1 hr by TR-FRET assay
[3] = target: Bromodomain-containing protein 3 (Homo sapiens, UniProt Q15059); assay: Displacement of biotinylated tetra-acetylated histone H4 from His6-tagged BRD3 (1 to 475 aa) (unknown origin) after 1 hr by TR-FRET assay
[4] = target: Bromodomain-containing protein 4 (Homo sapiens, UniProt O60885); assay: Displacement of biotinylated tetra-acetylated histone H4 from His6-tagged BRD4 (1 to 477 aa) (unknown origin) after 1 hr by TR-FRET assay
[5] = Solubility of the compound in fasted state simulated intestinal fluid at 125 ug/ml after 16 hrs by HPLC analysis; format: ADME; settings: for solubility at 16 h: fasted state simulated intestinal fluid
HepG2 [6] = assay: Upregulation of ApoA1 in human HepG2 cells after 16 hrs by luciferase reporter assay relative to control; format: functional
HepG2 [7] = assay: Upregulation of ApoA1 in human HepG2 cells at 10 uM after 16 hrs by luciferase reporter assay relative to control; format: functional
Mus musculus [8] = assay: Antiinflammatory activity in Balb/c mouse assessed as inhibition of LPS-induced PAI-1 mRNA expression in liver administered orally 2 hrs before LPS challenge measured after 2 hrs; format: functional, organism-based
Mus musculus [9] = assay: Antiinflammatory activity in Balb/c mouse assessed as inhibition of LPS-induced PAI-1 mRNA expression in liver at 3 mg/kg, po 2 hrs before LPS challenge measured after 2 hrs; format: functional, organism-based; design: dose 3 mg/kg
PBMC = assay: Inhibition of LPS-induced IL6 production in human PBMC after 18 to 24 hrs by immunoassay; format: functional, cell-based
Blood = assay: Inhibition of LPS-induced IL6 production in human whole blood after 24 hrs by immunoassay; format: functional, tissue-based
Hepatocyte [10] = assay: Clearance in human hepatocytes assessed per gram of tissue at 1 uM by LC-MS/MS analysis; format: ADME, cell-based
Hepatocyte [11] = assay: Clearance in rat hepatocytes assessed per gram of tissue at 1 uM by LC-MS/MS analysis; format: ADME, cell-based
[12] = Clearance in dog hepatocytes assessed per gram of tissue at 1 uM by LC-MS/MS analysis; format: ADME, cell-based, Canis lupus familiaris, Hepatocyte
[13] = Clearance in Cynomolgus monkey hepatocytes assessed per gram of tissue at 1 uM by LC-MS/MS analysis; format: ADME, cell-based, Macaca fascicularis, Hepatocyte
Cytochrome P450 1A2 = Cytochrome P450 1A2 (Homo sapiens, UniProt P05177); assay: Inhibition of CYP1A2 (unknown origin) expressed in Escherichia coli bactosomes using ethoxyresorufin as substrate after 10 mins by fluorescence assay; format: ADME
Cytochrome P450 2C9 = Cytochrome P450 2C9 (Homo sapiens, UniProt P11712); assay: Inhibition of CYP2C9 (unknown origin) expressed in Escherichia coli bactosomes using 7-methoxy-4-trifluoromethylcoumarin-3-acetic acid as substrate after 10 mins by fluorescence assay; format: ADME
Cytochrome P450 2C19 = Cytochrome P450 2C19 (Homo sapiens, UniProt P33261); assay: Inhibition of CYP2C19 (unknown origin) expressed in Escherichia coli bactosomes using 3-butyryl-7-methoxycoumarin as substrate after 10 mins by fluorescence assay; format: ADME
Cytochrome P450 2D6 = Cytochrome P450 2D6 (Homo sapiens, UniProt P10635); assay: Inhibition of recombinant human CYP2D6 expressed in Escherichia coli bactosomes using 4-methylaminomethyl-7-methoyxycoumarin as substrate after 10 mins by fluorescence assay; format: ADME
Cytochrome P450 3A4 [14] = target: T1, Cytochrome P450 3A4 (Homo sapiens, UniProt P08684); assay: Inhibition of human recombinant CYP3A4 expressed in Escherichia coli bactosomes using 7-benzloxyquinolone as substrate after 10 mins by fluorescence assay; format: ADME
Cytochrome P450 3A4 [15] = target: T1, Cytochrome P450 3A4; assay: Inhibition of human recombinant CYP3A4 expressed in Escherichia coli bactosomes using diethoxyfluorescein as substrate after 10 mins by fluorescence assay; format: ADME

Sequence of Bromodomain-containing protein 3 (Q15059 whole entry, the tested form may be a part): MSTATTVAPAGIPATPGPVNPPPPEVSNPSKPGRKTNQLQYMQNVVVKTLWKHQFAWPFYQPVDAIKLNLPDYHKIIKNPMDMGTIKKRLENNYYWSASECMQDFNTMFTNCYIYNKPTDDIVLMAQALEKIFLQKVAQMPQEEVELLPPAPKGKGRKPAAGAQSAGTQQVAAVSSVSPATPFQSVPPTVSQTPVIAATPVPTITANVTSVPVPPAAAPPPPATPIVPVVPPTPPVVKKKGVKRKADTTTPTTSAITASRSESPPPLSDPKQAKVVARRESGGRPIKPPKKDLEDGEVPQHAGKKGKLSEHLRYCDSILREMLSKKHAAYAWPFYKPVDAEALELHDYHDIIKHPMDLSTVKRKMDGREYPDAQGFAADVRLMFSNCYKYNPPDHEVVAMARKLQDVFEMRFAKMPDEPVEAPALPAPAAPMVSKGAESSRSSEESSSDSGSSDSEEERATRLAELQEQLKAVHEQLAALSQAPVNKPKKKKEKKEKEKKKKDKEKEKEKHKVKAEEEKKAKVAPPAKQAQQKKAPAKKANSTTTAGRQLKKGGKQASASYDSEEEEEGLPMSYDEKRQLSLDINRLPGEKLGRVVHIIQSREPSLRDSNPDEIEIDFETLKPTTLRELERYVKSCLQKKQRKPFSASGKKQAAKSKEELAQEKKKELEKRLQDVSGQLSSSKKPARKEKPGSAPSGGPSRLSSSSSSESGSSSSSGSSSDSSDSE
Sequence of Bromodomain-containing protein 2 (P25440 whole entry, the tested form may be a part): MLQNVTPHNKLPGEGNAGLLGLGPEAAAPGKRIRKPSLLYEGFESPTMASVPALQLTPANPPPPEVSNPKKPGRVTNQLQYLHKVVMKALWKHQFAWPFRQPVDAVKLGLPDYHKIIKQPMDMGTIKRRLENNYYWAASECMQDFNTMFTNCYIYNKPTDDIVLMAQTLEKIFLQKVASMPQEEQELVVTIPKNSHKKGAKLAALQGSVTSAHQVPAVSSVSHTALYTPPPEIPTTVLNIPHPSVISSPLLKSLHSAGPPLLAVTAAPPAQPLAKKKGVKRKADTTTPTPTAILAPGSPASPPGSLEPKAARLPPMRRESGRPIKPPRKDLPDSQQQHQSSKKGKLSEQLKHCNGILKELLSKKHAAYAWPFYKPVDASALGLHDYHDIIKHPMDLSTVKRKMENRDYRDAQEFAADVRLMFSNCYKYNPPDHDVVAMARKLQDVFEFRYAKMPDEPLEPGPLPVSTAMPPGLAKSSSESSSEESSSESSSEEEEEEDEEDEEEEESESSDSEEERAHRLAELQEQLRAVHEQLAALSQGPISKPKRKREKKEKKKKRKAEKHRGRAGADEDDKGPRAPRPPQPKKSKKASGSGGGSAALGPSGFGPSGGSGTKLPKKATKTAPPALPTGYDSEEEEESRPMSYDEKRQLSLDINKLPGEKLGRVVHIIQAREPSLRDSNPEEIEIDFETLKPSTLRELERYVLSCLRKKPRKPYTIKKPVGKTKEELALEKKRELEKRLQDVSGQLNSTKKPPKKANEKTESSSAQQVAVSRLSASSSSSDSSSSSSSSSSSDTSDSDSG
T1 sequence (P08684 whole entry): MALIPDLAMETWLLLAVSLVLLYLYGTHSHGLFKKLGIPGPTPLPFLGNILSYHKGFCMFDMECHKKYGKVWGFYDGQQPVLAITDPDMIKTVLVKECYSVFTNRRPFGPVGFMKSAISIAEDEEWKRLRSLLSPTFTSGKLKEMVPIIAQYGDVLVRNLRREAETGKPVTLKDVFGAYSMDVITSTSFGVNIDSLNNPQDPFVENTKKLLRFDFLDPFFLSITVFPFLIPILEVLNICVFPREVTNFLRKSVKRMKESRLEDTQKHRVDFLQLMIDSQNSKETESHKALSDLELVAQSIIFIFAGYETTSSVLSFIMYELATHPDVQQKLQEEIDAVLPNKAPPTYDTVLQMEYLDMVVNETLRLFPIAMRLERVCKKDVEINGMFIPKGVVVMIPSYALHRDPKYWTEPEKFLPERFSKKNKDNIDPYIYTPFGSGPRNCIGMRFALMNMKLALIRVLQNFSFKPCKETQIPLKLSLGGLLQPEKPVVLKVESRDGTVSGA
Sequence of Cytochrome P450 1A2 (P05177 whole entry): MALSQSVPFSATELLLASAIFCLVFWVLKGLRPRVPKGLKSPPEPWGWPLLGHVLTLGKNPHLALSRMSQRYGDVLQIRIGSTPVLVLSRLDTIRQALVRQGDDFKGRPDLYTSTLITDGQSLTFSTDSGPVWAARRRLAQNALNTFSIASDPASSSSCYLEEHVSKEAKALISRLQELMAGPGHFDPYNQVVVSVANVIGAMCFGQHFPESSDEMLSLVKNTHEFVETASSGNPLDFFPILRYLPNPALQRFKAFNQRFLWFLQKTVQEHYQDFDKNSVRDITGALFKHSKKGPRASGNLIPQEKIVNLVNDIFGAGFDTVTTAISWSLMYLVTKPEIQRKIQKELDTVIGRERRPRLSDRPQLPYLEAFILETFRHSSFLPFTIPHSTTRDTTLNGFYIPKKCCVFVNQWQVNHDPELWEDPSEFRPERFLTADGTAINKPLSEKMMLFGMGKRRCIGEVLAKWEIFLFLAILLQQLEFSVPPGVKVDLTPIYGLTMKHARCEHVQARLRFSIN
Sequence of Cytochrome P450 2C19 (P33261 whole entry): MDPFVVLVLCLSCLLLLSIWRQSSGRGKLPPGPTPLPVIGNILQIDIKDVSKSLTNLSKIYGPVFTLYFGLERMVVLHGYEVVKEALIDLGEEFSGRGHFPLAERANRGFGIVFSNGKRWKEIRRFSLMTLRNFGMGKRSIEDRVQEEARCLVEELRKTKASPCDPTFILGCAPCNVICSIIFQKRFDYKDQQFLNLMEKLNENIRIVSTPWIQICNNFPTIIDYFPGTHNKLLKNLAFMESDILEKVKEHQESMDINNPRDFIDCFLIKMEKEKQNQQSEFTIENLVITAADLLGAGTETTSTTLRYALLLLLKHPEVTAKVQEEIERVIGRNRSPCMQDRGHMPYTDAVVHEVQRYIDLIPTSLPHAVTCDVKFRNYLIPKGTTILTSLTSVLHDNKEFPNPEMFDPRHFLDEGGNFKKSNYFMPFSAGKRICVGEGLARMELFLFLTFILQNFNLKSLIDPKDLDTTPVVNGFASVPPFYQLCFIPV
Sequence of Cytochrome P450 2D6 (P10635 whole entry): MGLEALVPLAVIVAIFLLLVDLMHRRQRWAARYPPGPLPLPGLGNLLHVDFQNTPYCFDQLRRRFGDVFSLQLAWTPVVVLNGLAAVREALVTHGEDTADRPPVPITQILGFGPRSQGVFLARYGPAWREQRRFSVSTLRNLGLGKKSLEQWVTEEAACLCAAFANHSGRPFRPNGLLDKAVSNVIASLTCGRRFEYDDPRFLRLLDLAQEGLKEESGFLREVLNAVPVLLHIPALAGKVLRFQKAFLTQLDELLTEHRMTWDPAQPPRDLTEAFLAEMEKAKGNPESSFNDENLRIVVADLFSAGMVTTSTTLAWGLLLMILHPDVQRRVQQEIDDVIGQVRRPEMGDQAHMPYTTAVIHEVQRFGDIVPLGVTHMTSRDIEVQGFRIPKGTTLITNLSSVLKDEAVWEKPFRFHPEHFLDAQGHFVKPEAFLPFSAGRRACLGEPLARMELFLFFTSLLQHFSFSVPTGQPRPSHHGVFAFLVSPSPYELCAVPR
Sequence of Cytochrome P450 2C9 (P11712 whole entry): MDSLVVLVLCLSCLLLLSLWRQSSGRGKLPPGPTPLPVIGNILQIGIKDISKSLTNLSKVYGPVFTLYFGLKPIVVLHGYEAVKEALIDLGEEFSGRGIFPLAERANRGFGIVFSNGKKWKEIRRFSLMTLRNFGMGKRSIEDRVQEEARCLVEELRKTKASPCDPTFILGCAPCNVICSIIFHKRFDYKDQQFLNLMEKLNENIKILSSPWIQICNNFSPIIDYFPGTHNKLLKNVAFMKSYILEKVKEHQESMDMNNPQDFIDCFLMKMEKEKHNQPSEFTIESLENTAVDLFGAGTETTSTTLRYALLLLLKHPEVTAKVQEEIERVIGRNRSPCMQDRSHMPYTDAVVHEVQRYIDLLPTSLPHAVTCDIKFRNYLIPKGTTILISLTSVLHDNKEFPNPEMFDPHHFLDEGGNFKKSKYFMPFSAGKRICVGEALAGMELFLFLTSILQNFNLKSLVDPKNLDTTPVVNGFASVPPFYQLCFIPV

| SMILES | IC50 [2] [nM] | IC50 [3] [nM] | IC50 [4] [nM] | pEC170 (HepG2 [6]) | other results |
| --- | --- | --- | --- | --- | --- |
| CC(=O)N1c2ccccc2[C@H](Nc2ccccc2)C[C@@H]1C (racemic) | – | – | – | – | fold change (FC) (HepG2 [1]): 1.7 |
| COC(=O)c1ccc(-c2ccc3c(c2)[C@H](Nc2ccc(S(C)(=O)=O)cc2)C[C@H](C)N3C(C)=O)cc1 (racemic) | 1260 | 501 | 631 | 6 | – |
| CCC(=O)N1c2ccccc2C(Nc2ccccc2)CC1C (mixture of isomers) | – | – | – | – | fold change (FC) (HepG2 [1]): 1.6; fold change (FC) (HepG2 [7]): 1.4 |
| CC(=O)N1c2ccccc2C(Nc2ccccc2)CC1C (mixture of isomers) | – | – | – | – | fold change (FC) (HepG2 [1]): 1.7; fold change (FC) (HepG2 [7]): 2.3 |
| CC(=O)N1c2ccc(-c3ccc(C(F)(F)F)cc3)cc2[C@H](Nc2ccccc2)C[C@@H]1C (racemic) | 2000 | 1260 | 1000 | 6.2 | – |
| CCCC(=O)N1c2ccccc2C(Nc2ccccc2)CC1C (mixture of isomers) | – | – | – | – | fold change (FC) (HepG2 [7]): <=1.1 |
| CC(=O)N1c2ccc(-c3ccc(C(=O)O)cc3)cc2[C@H](Nc2ccc(Cl)cc2)C[C@@H]1C | – | – | – | – | inhibition (Mus musculus [8]): Dose-dependent effect; inhibition (Mus musculus [9]): Active |
| CC(=O)N1c2ccc(-c3ccc(C(N)=O)cc3)cc2[C@H](Nc2ccc(Cl)cc2)C[C@@H]1C (racemic) | 794 | 398 | 501 | 7.8 | – |
| CC(=O)N1c2ccc(-c3ccc(C(=O)O)cc3)cc2[C@H](Nc2ccccc2)C[C@@H]1C (racemic) | 631 | 398 | 501 | 7.3 | solubility at 16 h [5]: 118 µg/mL (≈ 295 µM) |
| CC(=O)N1c2ccc(-c3ccc(CN4CCCCC4)cc3)cc2[C@H](Nc2ccccc2)C[C@@H]1C (racemic) | – | – | – | 7.9 | solubility at 16 h [5]: 111 µg/mL (≈ 245 µM) |
| CC(=O)N1c2ccc(-c3ccc(CN4CCCCC4)cc3)cc2[C@H](N)C[C@@H]1C (racemic) | 50100 | 25100 | 25100 | <5 | – |
| CC(=O)N1c2ccccc2[C@@H](Nc2ccc(C)cc2)C[C@H]1C (racemic) | – | – | – | – | fold change (FC) (HepG2 [1]): 1.7 |
| CC(=O)N1c2ccc(-c3ccc(C(=O)O)cc3)cc2[C@H](Nc2ccc(Cl)cc2)C[C@@H]1C (racemic) | 398 | 398 | – | 7.8 | – |
| COc1cccc(N[C@@H]2C[C@H](C)N(C(C)=O)c3ccc(-c4ccc(C#N)cc4)cc32)c1 (racemic) | 1580 | 794 | 1000 | 6.7 | – |
| CC(=O)N1c2ccc(-c3ccc(CN4CCCCC4)cc3)cc2[C@H](Nc2ccc(Cl)cc2)C[C@@H]1C (racemic) | 1000 | 1260 | 1000 | 8 | – |
| CC(=O)N1c2ccc(-c3ccc(CN4CCCCC4)cc3)cc2[C@H](NC=O)C[C@@H]1C (racemic) | 15800 | 6310 | 6310 | 5.3 | – |
| CC(=O)N1c2ccc(-c3ccc(CN4CCCCC4)cc3)cc2[C@@H](Nc2ccccc2)C[C@H]1C | 25100 | 25100 | 25100 | 5.9 | – |
| CCCCC(=O)N1c2ccccc2C(Nc2ccccc2)CC1C (mixture of isomers) | – | – | – | – | fold change (FC) (HepG2 [7]): <=1.1 |
| CC(=O)N1c2ccc(-c3ccc(C#N)cc3)cc2[C@H](Nc2ccccc2)C[C@@H]1C (racemic) | 1000 | 794 | 631 | 7 | solubility at 16 h [5]: 57 µg/mL (≈ 149 µM) |
| CC(=O)N1c2ccc(-c3ccccc3)cc2[C@H](Nc2ccccc2)C[C@@H]1C (racemic) | 794 | 501 | 794 | 7 | – |
| COC(=O)c1cccc(-c2ccc3c(c2)[C@H](Nc2ccc(Cl)cc2)C[C@H](C)N3C(C)=O)c1 (racemic) | 2000 | 1000 | 1000 | 7.2 | – |
| CC(=O)N1c2ccc(-c3ccc(CN4CCCCC4)cc3)cc2[C@H](Nc2ccccc2)C[C@@H]1C | 501 | 316 | 398 | 8 | solubility ([5]; simulated gi fluid, 16 h): 125 µg/mL (≈ 276 µM); IC50 (PBMC): 3.16 nM; IC50 (Blood): 63.1 nM; CLH (Hepatocyte [10]): 1.8 mL/min/g; CLH (Hepatocyte [11]): 0.8 mL/min/g; CLH [12]: 0.9 mL/min/g; CLH [13]: 6 mL/min/g; IC50 (Cytochrome P450 1A2): > 33000 nM; IC50 (Cytochrome P450 2C9): 14000 nM; IC50 (Cytochrome P450 2C19): 20000 nM; IC50 (Cytochrome P450 2D6): 8000 nM; IC50 (Cytochrome P450 3A4 [14]): 10000 nM; IC50 (Cytochrome P450 3A4 [15]): 2000 nM |
| CC(=O)N1c2ccccc2[C@@H](Nc2ccc(C)cc2)C[C@@H]1C (racemic) | – | – | – | – | fold change (FC) (HepG2 [1]): 1.1 |

Further compounds by falling IC50 [2], results first:

| IC50 [2] [nM] | IC50 [3] [nM] | IC50 [4] [nM] | SMILES | pEC170 (HepG2 [6]) | other results |
| --- | --- | --- | --- | --- | --- |
| 6310 | 1580 | 2510 | COc1ccc(-c2ccc3c(c2)[C@H](Nc2ccccc2)CCN3C(C)=O)cc1 (racemic) | 6.1 | – |
| 3980 | 2510 | 3980 | CC(=O)N1c2ccc(-c3ccccc3C)cc2[C@H](Nc2ccc(Cl)cc2)C[C@@H]1C (racemic) | 5.6 | – |
| 1580 | 1000 | 794 | COC(=O)c1ccc(-c2ccc3c(c2)[C@H](Nc2ccc(F)cc2)C[C@H](C)N3C(C)=O)cc1 (racemic) | 7.3 | – |
| 1260 | 398 | 794 | CC(=O)N1c2ccc(-c3cccc(CN4CCCCC4)c3)cc2[C@H](Nc2ccccc2)C[C@@H]1C (racemic) | 7.1 | solubility at 16 h [5]: 99 µg/mL (≈ 218 µM) |
| 1260 | 631 | 631 | COc1ccc(-c2ccc3c(c2)[C@H](Nc2ccccc2)C[C@H](C)N3C(C)=O)cc1 (racemic) | 7.2 | solubility at 16 h [5]: 92 µg/mL (≈ 238 µM) |
| 1260 | 1000 | 1260 | COC(=O)c1ccc(-c2ccc3c(c2)[C@H](Nc2ccccc2)C[C@H](C)N3C(C)=O)cc1 (racemic) | 7.4 | solubility at 16 h [5]: 69 µg/mL (≈ 166 µM) |
| 1260 | 794 | 1000 | CC(=O)N1c2ccc(-c3ccc(C#N)cc3)cc2[C@H](Nc2cccc(F)c2)C[C@@H]1C (racemic) | 6.8 | – |
| 1000 | 316 | 316 | CC(=O)N1c2ccc(-c3ccc(C(=O)O)cc3)cc2[C@H](Nc2ccc(S(C)(=O)=O)cc2)C[C@@H]1C (racemic) | 5.4 | – |
| 794 | 631 | 501 | CC(=O)N1c2ccc(-c3ccc(CN4CCOCC4)cc3)cc2[C@H](Nc2ccccc2)C[C@@H]1C (racemic) | 7.6 | solubility at 16 h [5]: 107 µg/mL (≈ 235 µM) |
| 794 | 501 | 794 | CC(=O)N1c2ccc(-c3cccc(C(=O)O)c3)cc2[C@H](Nc2ccc(Cl)cc2)C[C@@H]1C (racemic) | 7.4 | – |
| 794 | 501 | 501 | CC(=O)N1c2ccc(-c3ccc(CO)cc3)cc2[C@H](Nc2ccccc2)C[C@@H]1C (racemic) | 7.5 | solubility at 16 h [5]: 73 µg/mL (≈ 189 µM) |
| 631 | 501 | 501 | COc1cccc(N[C@@H]2C[C@H](C)N(C(C)=O)c3ccc(-c4ccc(C(=O)O)cc4)cc32)c1 (racemic) | 7.3 | – |
| 631 | 501 | 631 | COc1ccccc1N[C@@H]1C[C@H](C)N(C(C)=O)c2ccc(-c3ccc(C(=O)O)cc3)cc21 (racemic) | 7.6 | – |
| 501 | 316 | 631 | CC(=O)N1c2ccc(-c3ccc(C(=O)O)cc3)cc2[C@H](Nc2ccc(C)cc2)C[C@@H]1C (racemic) | 7.8 | – |
| 501 | 501 | 631 | COC(=O)c1ccc(-c2ccc3c(c2)[C@H](Nc2ccc(C(C)(C)C)cc2)C[C@H](C)N3C(C)=O)cc1 (racemic) | 6.9 | – |
| 200 | 158 | 251 | CC(=O)N1c2ccc(-c3ccc(C(=O)O)cc3)cc2[C@H](Nc2ccc(C)cc2)C[C@@H]1C | 8 | – |

From ChEMBL document CHEMBL3351476, “The discovery of I-BET726 (GSK1324726A), a potent tetrahydroquinoline ApoA1 up-regulator and selective BET bromodomain inhibitor” (J Med Chem, 2014)
